Test results reported in publication doi:10.1101/2024.08.19.608619, “Discovery of potent SARS-CoV-2 nsp3 macrodomain inhibitors uncovers lack of translation to cellular antiviral response” (bioRxiv, 2024).
Values after ≈ are worked out from the molar mass of the structure shown.

Tests used:
[1] = Permeability Papp (AB) MDR1/MDCKII; settings: In vitro MDR1-MDCKII permeability; for papp_a_to_b_mean: A to B; for perc_recovery_a_to_b_mean: recovery A to B
[2] = LogD; settings: pH 7.4; In vitro LogD
[3] = Hepatic microsomal stability, MLM; assay type: in vitro ADME
[4] = In vitro kinetic solubility; settings: In vitro kinetic solubility, ph 7.4
[5] = Hepatic microsomal stability, HLM; assay type: in vitro ADME, human; settings: In vitro human liver microsomal stability; for perc_remaining_no_cofactor: no cofactor
[6] = In vitro mouse liver microsomal stability
[7] = In vitro mouse liver microsomal stability; no cofactor
[8] = In vitro mouse liver microsomal stability, no cofactor

CCNC(=O)c1cc2c(N[C@H](c3ccc4c(c3)S(=O)(=O)CCC4)C(C)C)ncnc2[nH]1 (racemic) [ASAP-0008711]
papp_a_to_b_mean ([1]; mean): 0.7 ×10⁻⁶ cm/s
perc_recovery_a_to_b_mean ([1]; mean): 87.2%
logd [2]: 2.8
clint [3, 6]: 85.0 µL/min/mg
perc_remaining [3, 6]: 21.0%
t_half [3, 6]: 19.5 min
perc_remaining_no_cofactor [3, 7]: 95.0%
solubility_mean [4]: 336 µM (≈ 148 µg/mL)
clint [5]: 108.0 µL/min/mg
perc_remaining [5]: 15.0%
t_half [5]: 15.4 min
perc_remaining_no_cofactor [5]: 98.0%

CC(C)[C@@H](Nc1ncnc2[nH]c(-c3cnn(C)c3C#N)cc12)c1ccc2c(c1)S(=O)(=O)CCC2 [ASAP-0008651]
papp_a_to_b_mean ([1]; mean): 1.97 ×10⁻⁶ cm/s
perc_recovery_a_to_b_mean ([1]; mean): 81.6%
logd [2]: 3.6
clint [3, 6]: 440.0 µL/min/mg
perc_remaining [3, 6]: 0.0%
t_half [3, 6]: 3.8 min
perc_remaining_no_cofactor [3, 7]: 96.0%
solubility_mean [4]: 34 µM (≈ 16.2 µg/mL)
clint [5]: 490.0 µL/min/mg
perc_remaining [5]: 1.0%
t_half [5]: 3.4 min
perc_remaining_no_cofactor [5]: 94.0%

COc1ccc(C(NC(=O)c2ncnc3[nH]ccc23)C(C)c2nnn[nH]2)cc1 (mixture of isomers) [ASAP-0010744]
papp_a_to_b_mean ([1]; no inhibitor): 1.13 ×10⁻⁶ cm/s
perc_recovery_a_to_b_mean ([1]; no inhibitor): 93.6%
logd [2]: 0.0
clint [3, 6]: 1.0 µL/min/mg
perc_remaining [3, 6]: 99.0%
t_half [3, 6]: 2882.2 min
perc_remaining_no_cofactor [3, 8]: 92.0%
solubility_mean [4]: ≥ 400 µM
clint [5]: 2.0 µL/min/mg
perc_remaining [5]: 92.0%
t_half [5]: 798.7 min
perc_remaining_no_cofactor [5]: 103.0%

CC(C)[C@H](Nc1ncnc2[nH]c(C(=O)N[C@@H]3CCN(C)C3)cc12)c1ccc2c(c1)S(=O)(=O)CCC2 [ASAP-0011196]
papp_a_to_b_mean ([1]; no inhibitor): 0.707 ×10⁻⁶ cm/s
perc_recovery_a_to_b_mean ([1]; no inhibitor): 103.0%
logd [2]: 1.4
clint [3, 6]: 3.0 µL/min/mg
perc_remaining [3, 6]: 104.0%
t_half [3, 6]: 648.8 min
perc_remaining_no_cofactor [3, 8]: 107.0%
solubility_mean [4]: 366 µM (≈ 182 µg/mL)
clint [5]: 3.0 µL/min/mg
perc_remaining [5]: 98.0%
t_half [5]: 626.9 min
perc_remaining_no_cofactor [5]: 100.0%

CC(C)[C@H](Nc1ncnc2[nH]c(-c3cnn(CC(N)=O)c3)cc12)c1ccc2c(c1)OCCO2 (single isomer, unassigned) [ASAP-0008450]
papp_a_to_b_mean ([1]; mean): 1.87 ×10⁻⁶ cm/s
perc_recovery_a_to_b_mean ([1]; mean): 90.9%
logd [2]: 2.9
clint [3, 6]: 42.0 µL/min/mg
perc_remaining [3, 6]: 49.0%
t_half [3, 6]: 40.0 min
perc_remaining_no_cofactor [3, 8]: 98.0%
solubility_mean [4]: 332 µM (≈ 149 µg/mL)
clint [5]: 238.0 µL/min/mg
perc_remaining [5]: 2.0%
t_half [5]: 7.0 min
perc_remaining_no_cofactor [5]: 90.0%

CC(C)[C@H](Nc1ncnc2[nH]c(-c3cnn(CC(=O)N(C)C)c3)cc12)c1ccc2c(c1)S(=O)(=O)CCC2 [ASAP-0013744]
papp_a_to_b_mean ([1]; no inhibitor): 1.17 ×10⁻⁶ cm/s
perc_recovery_a_to_b_mean ([1]; no inhibitor): 116.0%
logd [2]: 2.2
clint [3, 6]: 124.0 µL/min/mg
perc_remaining [3, 6]: 13.0%
t_half [3, 6]: 13.5 min
perc_remaining_no_cofactor [3, 8]: 98.0%
solubility_mean [4]: 361 µM (≈ 188 µg/mL)
clint [5]: 92.0 µL/min/mg
perc_remaining [5]: 22.0%
t_half [5]: 18.1 min
perc_remaining_no_cofactor [5]: 97.0%

CC(C)[C@H](Nc1ncnc2[nH]cc(C(=O)NC3CC3)c12)c1ccc2c(c1)S(=O)(=O)CCC2 (racemic) [ASAP-0008647]
papp_a_to_b_mean ([1]; mean): 2.46 ×10⁻⁶ cm/s
perc_recovery_a_to_b_mean ([1]; mean): 73.4%
logd [2]: 3.1
clint [3, 6]: 234.0 µL/min/mg
perc_remaining [3, 6]: 2.0%
t_half [3, 6]: 7.2 min
perc_remaining_no_cofactor [3, 8]: 101.0%
solubility_mean [4]: 257 µM (≈ 117 µg/mL)
clint [5]: 29.0 µL/min/mg
perc_remaining [5]: 57.0%
t_half [5]: 57.0 min
perc_remaining_no_cofactor [5]: 90.0%

CNC(=O)c1cc2c(N[C@@H](c3ccc4c(c3)NC(=O)CO4)C(C)C)ncnc2[nH]1 [ASAP-0011219]
papp_a_to_b_mean ([1]; mean): 1.21 ×10⁻⁶ cm/s
perc_recovery_a_to_b_mean ([1]; mean): 105.0%
logd [2]: 2.9
clint [3, 6]: 33.0 µL/min/mg
perc_remaining [3, 6]: 57.0%
t_half [3, 6]: 51.2 min
perc_remaining_no_cofactor [3, 8]: 99.0%
solubility_mean [4]: 380 µM (≈ 150 µg/mL)
clint [5]: 175.0 µL/min/mg
perc_remaining [5]: 6.0%
t_half [5]: 9.6 min
perc_remaining_no_cofactor [5]: 96.0%

CNC(=O)c1c[nH]c2ncnc(N[C@H](c3ccc4c(c3)S(=O)(=O)CCC4)C(C)C)c12 (racemic) [ASAP-0008641]
papp_a_to_b_mean ([1]; mean): 2.23 ×10⁻⁶ cm/s
perc_recovery_a_to_b_mean ([1]; mean): 79.1%
logd [2]: 2.5
clint [3, 6]: 192.0 µL/min/mg
perc_remaining [3, 6]: 3.0%
t_half [3, 6]: 8.7 min
perc_remaining_no_cofactor [3, 8]: 92.0%
solubility_mean [4]: 390 µM (≈ 167 µg/mL)
clint [5]: 131.0 µL/min/mg
perc_remaining [5]: 11.0%
t_half [5]: 12.8 min
perc_remaining_no_cofactor [5]: 104.0%

CC(C)[C@@H](Nc1ncnc2[nH]ccc12)c1ccc2c(c1)OCCO2 [ASAP-0008279]
logd [2]: 3.0

CC(C)(C)[C@H](Nc1ncnc2[nH]c(-c3cnn(CC(N)=O)c3)cc12)c1ccc2c(n1)OCCO2 (single isomer, unassigned) [ASAP-0011159]
papp_a_to_b_mean ([1]; no inhibitor): 1.02 ×10⁻⁶ cm/s
perc_recovery_a_to_b_mean ([1]; no inhibitor): 95.8%
logd [2]: 2.7
clint [3, 6]: 10.0 µL/min/mg
perc_remaining [3, 6]: 88.0%
t_half [3, 6]: 162.3 min
perc_remaining_no_cofactor [3, 8]: 116.0%
solubility_mean [4]: 372 µM (≈ 172 µg/mL)
clint [5]: 27.0 µL/min/mg
perc_remaining [5]: 64.0%
t_half [5]: 60.8 min
perc_remaining_no_cofactor [5]: 95.0%
